In patent US8153791B2, “Substituted pyrimidinyl oxime kinase inhibitors” (Janssen Pharmaceutica N.V., priority 2005, dated 2012) one finds IC50 data, which are given here for 8 compounds.

The subject of one assay is SKBR3 breast carcinoma. Kind of assay: In vitro cell proliferation inhibition, SKBR3. It counts as cell-based. As to conditions: Homo sapiens. An excerpt:
(§1) The ability of a test compound to inhibit unregulated in vitro cell proliferation may be determined by measuring incorporation of ^14C-labelled thymidine into newly synthesized DNA within cell lines derived from carcinomas originating from several tissues. Accordingly, the effect of a test compound on proliferation of cells with a variety of phenotypes may be determined.
(§2) Carcinoma cell lines used include the HeLa cervical adenocarcinoma from the American Type Culture Collection (ATCC Cat. #CCL2), SK-OV-3 ovarian carcinoma (ATCC Cat. #HTB-77), MCF-7 breast carcinoma (ATCC Cat. #HTB-22), BT474 breast carcinoma (ATCC Cat. #HTB-20), SKBR3 breast carcinoma (ATCC Cat. #HTB-30), A431 epidermoid carcinoma (ATCC Cat. #CRL-1555) and NCI-N87 gastric carcinoma (ATCC Cat. #CRL-5822).
(§3) The carcinoma cells are trypsinized and counted. The cells (3000-8000 count) are added to each well of a 96-well CytoStar tissue culture treated scintillating microplate (Amersham #RPNQ0160) in complete medium (100 μL) and the plate is then incubated in complete medium for 24 hrs at 37° C. in an inert atmosphere containing 5% CO2.
(§4) Test compound (1 μL) in 100% DMSO is added to the plate test-wells with DMSO only added to control-wells. The plate is incubated in complete medium for a second 24 hr period at 37° C. in an atmosphere containing 5% CO2.
(§5) An aliquot of a solution of Methyl ^14C-thymidine (56 mC/mmol) (NEN #NEC568 or Amersham #CFA532) and complete medium (20 μL to provide 0.2 μCi/well) is then added to each well and the plate is incubated for a third 24 hr period at 37° C. in an atmosphere containing 5% CO2.
(§6) The plate contents are then discarded, the plate is washed twice with PBS (200 μL) and then PBS (200 μL) is added to each well. The plate is sealed and the degree of methyl ^14C-thymidine incorporation is quantified on a Packard Top Count.
(§7) Cell proliferation of the Hela cell line was measured using the ATP-Lite method as described in the ATP Lite Kit (Perkin-Elmer Kit Number 6106941) or the C^14 method as described above. Cell proliferation of the other cell lines was measured using the C^14 method.
(§8) The term “NT” means that the compound indicated was not tested in a particular cell line. The lack of such testing is not intended to imply a belief that the compound is not otherwise active in a particular cell line or any other cell line not tested.

Assay [1] has as its system NCI-N87 gastric carcinoma. Kind of assay: In vitro cell proliferation inhibition, NCI-N87. It counts as cell-based. Conditions: Homo sapiens.
Text: as §1, §2, §3, §4, §5, §6, §7, §8

Another assay concerns BT474 breast carcinoma. In words: In vitro cell proliferation inhibition, BT474. It counts as cell-based. As to conditions: Homo sapiens.
Text: as §1, §2, §3, §4, §5, §6, §7, §8

Assay [2] concerns HeLa cervical adenocarcinoma. In words: In vitro cell proliferation inhibition, HeLa. Conditions: Homo sapiens, read-out: HeLa IC50. It counts as cell-based.
Text: as §1, §2, §3, §4, §5, §6, §7, §8

Assay [3] has as its system A431 epidermoid carcinoma. In words: In vitro cell proliferation inhibition, A431. It counts as cell-based. Conditions: Homo sapiens.
Text: as §1, §2, §3, §4, §5, §6, §7, §8

The target of another assay is T1, EGFR (Homo sapiens, UniProt P00533).
T1 construct: The intracellular portion of EGFR started at nucleotide 2189 (corresponding to amino acid 667) and ended at the termination codon; made in house; host or cells: Sf9 insect cells (baculovirus)
In words: EGFR Kinase Assay.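 Note: recombinant GST-tagged EGFR expressed in Sf9 cells, phosphorylating biotinylated polyGluTyr with γ-33P ATP on Streptavidin Flashplates, 1 h at 30 °C, scintillation counting, inhibition relative to plate maximum and minimum signals.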 It counts as biochemical.

The next assay concerns the target T2, HER-2 (Homo sapiens, UniProt P04626).
T2 construct: purchased Proqinase (Freiburg, Germany)
In words: HER-2 Kinase Assay.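 Note: HER2 kinase reaction read by scintillation counting, inhibition scaled between maximum and minimum signals set on each plate, IC50 from inhibition against log concentration.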 Conditions: read-out: HER2 IC50. It counts as biochemical.

Where [4] appears, read: SK-BR-3, SKBR3 cells, 14C-thymidine incorporation, read-out: IC50 SKBR3.
Where [5] appears, read: NCI-N87, N87 cells, 14C-thymidine incorporation, read-out: IC50 N87.
[6] abbreviates: BT-474, BT474 cells, 14C-thymidine incorporation, read-out: IC50 BT474.
The mark [7] stands for this setting: HeLa cell line, ATP-Lite method or C14 thymidine method.
The mark [8] stands for this setting: A-431, A431 cells, 14C-thymidine incorporation, read-out: IC50 A431.

pIC50: −log10 of the molar value. Read-outs that look alike come from different tables or passages of the source.

T2 sequence (P04626 679-1255): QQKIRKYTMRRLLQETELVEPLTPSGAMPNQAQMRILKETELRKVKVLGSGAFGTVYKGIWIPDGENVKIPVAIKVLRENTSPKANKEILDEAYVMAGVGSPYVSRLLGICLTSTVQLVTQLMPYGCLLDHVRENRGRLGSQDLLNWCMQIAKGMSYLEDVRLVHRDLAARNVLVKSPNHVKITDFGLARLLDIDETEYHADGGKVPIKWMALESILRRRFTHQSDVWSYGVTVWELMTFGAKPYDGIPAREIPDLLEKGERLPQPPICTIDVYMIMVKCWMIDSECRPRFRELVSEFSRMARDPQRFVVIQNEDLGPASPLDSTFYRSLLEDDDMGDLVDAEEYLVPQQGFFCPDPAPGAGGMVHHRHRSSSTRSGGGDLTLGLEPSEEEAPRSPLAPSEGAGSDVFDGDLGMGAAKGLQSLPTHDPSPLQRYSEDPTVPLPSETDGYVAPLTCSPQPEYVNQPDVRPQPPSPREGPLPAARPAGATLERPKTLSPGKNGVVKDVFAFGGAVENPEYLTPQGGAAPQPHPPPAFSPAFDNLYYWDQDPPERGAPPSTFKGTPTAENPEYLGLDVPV
T1 sequence (P00533 669-1210 limits assumed): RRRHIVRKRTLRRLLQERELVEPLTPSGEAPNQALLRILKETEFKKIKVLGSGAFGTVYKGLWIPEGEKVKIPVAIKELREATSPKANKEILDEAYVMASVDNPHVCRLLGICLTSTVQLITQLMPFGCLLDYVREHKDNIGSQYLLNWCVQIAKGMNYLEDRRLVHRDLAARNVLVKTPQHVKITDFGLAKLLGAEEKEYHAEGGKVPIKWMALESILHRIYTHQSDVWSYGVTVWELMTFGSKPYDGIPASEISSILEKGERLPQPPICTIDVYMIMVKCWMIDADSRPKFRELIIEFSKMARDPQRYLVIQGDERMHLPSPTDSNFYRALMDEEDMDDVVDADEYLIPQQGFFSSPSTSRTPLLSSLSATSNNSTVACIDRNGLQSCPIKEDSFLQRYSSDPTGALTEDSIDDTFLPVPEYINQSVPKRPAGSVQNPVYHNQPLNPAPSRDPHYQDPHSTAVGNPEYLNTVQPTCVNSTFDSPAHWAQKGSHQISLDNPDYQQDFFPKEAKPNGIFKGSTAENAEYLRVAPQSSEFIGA

Take `Nc1ncnc(Nc2ccc3c(cnn3Cc3cccc(F)c3)c2)c1/C=N/OCc1ccccc1` [Cpd 46, (5E)-4-amino-6-[1-(3-fluoro-benzyl)-1H-indazol-5-ylamino]-pyrimidine-5-carbaldehyde O-benzyl-oxime]: the pIC50 in the assay with SKBR3 breast carcinoma (setting [4]) was 6.52; in assay [1] (setting [5]) it was 5.00; in the assay with BT474 breast carcinoma (setting [6]) it was 7.00; in assay [2] (setting [7]), 4.00; in assay [3] (setting [8]), 4.00.
Turning to `CN(C)CCCO/N=C/c1c(N)ncnc1Nc1ccc2c(cnn2Cc2cccc(F)c2)c1` [Cpd 70, (5E)-4-amino-6-[1-(3-fluoro-benzyl)-1H-indazol-5-ylamino]-pyrimidine-5-carbaldehyde O-(3-dimethylamino-propyl)-oxime], the pIC50 is 6.40 with SKBR3 breast carcinoma (SK-BR-3, read-out: IC50 SKBR3); 6.52 in assay [1] (NCI-N87, read-out: IC50 N87); 7.00 with BT474 breast carcinoma (BT-474, read-out: IC50 BT474); 5.00 in assay [2] (HeLa); 4.85 in assay [3] (A-431, read-out: IC50 A431); 7.70 at EGFR. Besides, the pIC50 on HER-2 is 7.70.
As for `Nc1ncnc(Nc2ccc3c(cnn3Cc3cccc(F)c3)c2)c1/C=N/OCCCN1CCOCC1` [Cpd 87, (5E)-4-amino-6-[1-(3-fluoro-benzyl)-1H-indazol-5-ylamino]-pyrimidine-5-carbaldehyde O-(3-morpholin-4-yl-propyl)-oxime], the pIC50 with SKBR3 breast carcinoma (setting [4]) is 6.30; in assay [1] (setting [5]), 6.52; in the assay on BT474 breast carcinoma (setting [6]), 6.52; in assay [2] (setting [7]), 5.31; in assay [3] (setting [8]), 5.44; at EGFR, 7.52. The pIC50 at HER-2 was 7.15.
As to `Nc1ncnc(Nc2ccc3c(cnn3Cc3cccc(F)c3)c2)c1/C=N/OCCCN1CCCCC1` [Cpd 92, (5E)-4-amino-6-[1-(3-fluoro-benzyl)-1H-indazol-5-ylamino]-pyrimidine-5-carbaldehyde O-(3-piperidin-1-yl-propyl)-oxime], the pIC50 is 6.40 in the assay with SKBR3 breast carcinoma (setting [4]); 6.70 in assay [1] (setting [5]); 6.70 in the assay on BT474 breast carcinoma (setting [6]); 5.33 in assay [2] (setting [7]); 5.51 in assay [3] (setting [8]); 7.30 against EGFR. For the same compound, the pIC50 on HER-2 is 7.52.
`Nc1ncnc(Nc2ccc(OCc3cc(F)cc(F)c3)c(Cl)c2)c1/C=N/OCCN1CCOCC1` [Cpd 99, (5E)-4-amino-6-[3-chloro-4-(3,5-difluoro-benzyloxy)-phenylamino]-pyrimidine-5-carbaldehyde O-(2-morpholin-4-yl-ethyl)-oxime]: the pIC50 in the assay on SKBR3 breast carcinoma (setting [4]) was 4.00; in assay [1] (setting [5]), 4.00; in the assay on BT474 breast carcinoma (setting [6]), 5.00; in assay [2] (setting [7]), 4.00; in assay [3] (setting [8]), 4.00; against EGFR, 7.15. For the same compound, the pIC50 at HER-2 is 6.70.
`Nc1ncnc(Nc2ccc3c(ccn3Cc3cccc(F)c3)c2)c1/C=N/OCCN1CCCCC1` [Cpd 102, (5E)-4-amino-6-[1-(3-fluoro-benzyl)-1H-indol-5-ylamino]-pyrimidine-5-carbaldehyde O-(2-piperidin-1-yl-ethyl)-oxime]: the pIC50 in the assay with SKBR3 breast carcinoma (setting [4]) is 6.15; in assay [1] (setting [5]), 6.70; in the assay with BT474 breast carcinoma (setting [6]), 6.05; in assay [2] (setting [7]), 5.85; in assay [3] (setting [8]), 9.00; at EGFR, 7.40. Further, at HER-2, the pIC50 was 6.85.
Turning to `Nc1ncnc(Nc2ccc(F)c(Cl)c2)c1/C=N/OCCN1CCOCC1` [Cpd 108], the pIC50 is 5.00 in assay [2] (setting [7]), 6.70 on EGFR and 5.96 on HER-2.
For `N#Cc1c(N)ncnc1Nc1ccc(OCc2ccccc2)c(Cl)c1` [Cpd 118, 4-amino-6-(4-benzyloxy-3-chloro-phenylamino)-pyrimidine-5-carbonitrile], the pIC50 in the assay on SKBR3 breast carcinoma (setting [4]) is 4.00; in assay [1] (setting [5]), 4.00; in the assay on BT474 breast carcinoma (setting [6]), 4.00; in assay [2] (setting [7]), 4.00; in assay [3] (setting [8]), 4.00; against EGFR it was 7.52. For the same compound, the pIC50 on HER-2 is 7.00.

What is called pIC50 is −log10 of the IC50, conventionally taken in molar units.
